{"source": "patent US6348483B1", "about": "“Use of derivatives of methylene-bis-oxazolidine and compositions obtained thereby” (Air Liquide Sante (International), priority 1998, dated 2002)", "key": {"Bacteria suspension": {"tested_on": "Bacteria suspension", "experiment": "Boko test in water-diluted cutting fluids, bacteria suspension", "type": "cell-based", "method": "(§1) In separate batches, in each case 100 ml of the water-diluted cutting fluid to be preserved were admixed with various concentrations of the preservatives to be examined. The growth control used was in each case an unpreserved sample. Two days after the incorporation of the preservatives, the test batches were infected for the first time using 1 ml of an inoculating solution. The inoculating solution used was a suspension of the germs listed below (cultivated on nutrient media and then adapted to water-diluted cutting fluids). […] [table] The test batches were subsequently inoculated two times a week and plated onto agar plates two times per week, the first smear being carried out immediately prior to the new inoculation. The microbial growth on the smears was assessed after incubation at 25° C. for three days. […] The preservative effect of the individual product concentrations was assessed in a semiquantitative method by the colonization of the individual smears using the classification from − to +to +++. Growth was differentiated according to bacteria, yeasts and moulds. The test was usually carried out for twelve inoculation cycles or interrupted after repeated +++growth. The cutting fluids Shell Dromus BX or Almasol EP from Castrol or Rondocor Kompakt from Consulta were examined as 4% strength by weight emulsions in tap water from the city of Norderstedt. Inoculation was carried out using a suspension of bacteria or fungi or a mixed suspension of bacteria and fungi."}, "[1]": {"tested_on": "Mixed suspension of bacteria and fungi", "experiment": "Boko test in water-diluted cutting fluids, mixed suspension", "type": "cell-based", "method": "as §1"}, "[2]": {"conditions": "Cutting fluid Almasol EP, use concentration 0.05% by weight"}, "[3]": {"conditions": "Cutting fluid Almasol EP, use concentration 0.10% by weight"}, "[4]": {"conditions": "Cutting fluid Almasol EP, use concentration 0.15% by weight"}, "[5]": {"conditions": "Cutting fluid Rondocor Kompakt, use concentration 0.05% by weight"}, "[6]": {"conditions": "Cutting fluid Rondocor Kompakt, use concentration 0.10% by weight"}, "[7]": {"conditions": "Cutting fluid Rondocor Kompakt, use concentration 0.15% by weight"}, "[8]": {"conditions": "Cutting fluid Shell Dromus BX, use concentration 0.05% by weight"}, "[9]": {"conditions": "Cutting fluid Shell Dromus BX, use concentration 0.10% by weight"}, "[10]": {"conditions": "Cutting fluid Shell Dromus BX, use concentration 0.15% by weight"}}, "data": [{"compound": "CC1CN(CN2COC(C)C2)CO1", "note": "(stereo not drawn) [Mar 71, 3,3′-methylenebis-(5-methyloxazolidine)]", "values": [{"measurement": "Number of inoculation cycles passed on inoculation with Bacteria suspension", "setting": "Bacteria suspension; [2]", "value": ">12"}, {"measurement": "Number of inoculation cycles passed on inoculation with Bacteria suspension", "setting": "Bacteria suspension; [3]", "value": ">12"}, {"measurement": "Number of inoculation cycles passed on inoculation with Bacteria suspension", "setting": "Bacteria suspension; [4]", "value": ">12"}, {"measurement": "Number of inoculation cycles passed on inoculation with Bacteria suspension", "setting": "Bacteria suspension; [5]", "value": ">12"}, {"measurement": "Number of inoculation cycles passed on inoculation with Bacteria suspension", "setting": "Bacteria suspension; [6]", "value": ">12"}, {"measurement": "Number of inoculation cycles passed on inoculation with Bacteria suspension", "setting": "Bacteria suspension; [7]", "value": ">12"}, {"measurement": "Number of inoculation cycles passed on inoculation with Bacteria suspension", "setting": "Bacteria suspension; [8]", "value": ">12"}, {"measurement": "Number of inoculation cycles passed on inoculation with Bacteria suspension", "setting": "Bacteria suspension; [9]", "value": ">12"}, {"measurement": "Number of inoculation cycles passed on inoculation with Bacteria suspension", "setting": "Bacteria suspension; [10]", "value": ">12"}, {"measurement": "Number of inoculation cycles passed on inoculation with Mixed suspension", "setting": "[1]; [2]", "value": 11}, {"measurement": "Number of inoculation cycles passed on inoculation with Mixed suspension", "setting": "[1]; [3]", "value": ">12"}, {"measurement": "Number of inoculation cycles passed on inoculation with Mixed suspension", "setting": "[1]; [4]", "value": 11}, {"measurement": "Number of inoculation cycles passed on inoculation with Mixed suspension", "setting": "[1]; [5]", "value": ">12"}, {"measurement": "Number of inoculation cycles passed on inoculation with Mixed suspension", "setting": "[1]; [6]", "value": ">12"}, {"measurement": "Number of inoculation cycles passed on inoculation with Mixed suspension", "setting": "[1]; [7]", "value": ">12"}, {"measurement": "Number of inoculation cycles passed on inoculation with Mixed suspension", "setting": "[1]; [8]", "value": 4}, {"measurement": "Number of inoculation cycles passed on inoculation with Mixed suspension", "setting": "[1]; [9]", "value": 11}, {"measurement": "Number of inoculation cycles passed on inoculation with Mixed suspension", "setting": "[1]; [10]", "value": ">12"}]}]}
